# Laboratory results as given in patent publication US20200330447A1, “CANCER TREATMENT VIA REPOSITIONED TRICYCLIC ANTI-DEPRESSANT-LIKE DRUGS AS ANTI-CANCER AGENTS AND NEW COMBINATIONS OF SUCH DRUGS” (Board of Supervisors of Louisiana State University and …, priority 2015, published 2020).
# Where a name gives a salt, the structure may show the parent alone.
# How the values were obtained:
# Format in all cases: cell-based
# [1] = tested on: DU145 prostate cancer cells; assay: High content imaging-based screen (Cellomics) for lysosome migration inhibitors; conditions: 16 hours; for hit in screen for lysosome migration inhibitors (mean ring spot count): pH 6.4 media, 2 micrograms per ml
# Procedure: DEVELOPMENT OF A HIGH CONTENT IMAGING-BASED SCREEN: The followings process was followed to identify chemicals that were lysosome migration inhibitors. DU145 prostate cancer cells were seeded in 96 well flat bottom black walled plates at 4,500 cells per well. All compounds and controls were exposed to RPMI bicarbonate buffered media (pH 6.4). RPMI buffered media titrated at pH of 6.4-6.8 was added to column 12 after the media was removed and serves as negative control (low acidic pH so lysosomes move out). […] The 4 compound libraries chosen to screen were the NIH Clinical Collection (450 drugs), Prestwick (1200 drugs), Prestwick phytochemical and the Green Pharma collection (xx drugs). Compounds were diluted with buffered RPMI media to 2 micrograms per ml concentrations. Individual compounds to be screened were added robotically as a single compound per well through columns 2-11. Plates were incubated at 37 degrees in 5% CO2 for 16 hours then the medium was removed and the cells were fixed with 4% cold paraformaldehyde (Sigma-Aldrich) for 20 minutes at 4 degrees. Fixed cells were washed once with PBS. To stain lysosomes, cells were incubated for 1 hour with LAMP1 antibody (H4A3) diluted in BSP (containing 0.25% BSA and 0.1% saponin in PBS) at 1/200. Cells were then washed with PBS 3 times then incubated for 1 hour with Dylight Donkey anti-mouse diluted at 1/200 in BSP. To stain the nucleus, cells were then washed with PBS 3 times and incubated for 20 minutes with 1×DAPI diluted in PBS. DAPI was washed off with PBS and cells were maintained in PBS for the duration of the screening process. Plates were mounted and read in a Cellomics Arrayscan automated fluorescence imager. The Cellomics platform allows for high content throughput screening by combining fluorescence microscopy with a multi-parameter image analysis. Cells were photographed using 20× objective in 2 fluorescent channels. A total of 15 different fields in each well, and at least 300 cells were imaged per well. The biocompartmental analysis algorithm was used to identify each cell by its nucleus (channel 1 recognized by the DAPI stain) and to generate a cytoplasmic mask (ring) of 12 pixels width in which the inner ring was 6 pixels away from the nucleus. The algorithm calculates the number of lysosomes inside the ring as indicated by fluorescent LAMP-1 positive puncta in channel 2 as a mean ring spot count. Therefore, when lysosomes move away from the nucleus and disperse throughout the cytoplasm, the number of spots representing lysosomes inside the cytoplasmic ring increases (low pH conditions). By contrast, lysosomes cluster near the nucleus the numbers of spot inside the cytoplasmic ring decreases (EIPA treated).
# Z′-factor is a simple statistical coefficient used to assess performance and quality of the assay in high-throughput screening. It is calculated with the formula: Z′=1-(3σct+3σcb)/|μct−μcb|, where p indicates mean, a represents standard deviation, “ct” indicates the positive control, “cb” indicates the negative control. […] If the Z′ is more than 0.5, the assay is considered to be high quality assay.
# The Z′ factor of the assay was determined from the EIPA (positive control) and low pH (negative control). Experiments were run in duplicate. Only plates with positive Z′ factor was used for analysis.
# A172 glioblastoma cells = assay: Acidic media pH induced lysosome distribution, LAMP-1 IF imaging; conditions: EIPA, low pHe media
# Procedure: A172 glioblastoma cells were treated overnight with 5 or 10 μM deptropine or pizotifen or with the deptropine or pizotifen in combination at 5 μM concentration. The next day, media was change to low pHe media containing deptropine or pizotifen and the cells were incubated for an additional 2 h. EIPA is a known inhibitor of lysosomal outward movement and represents the positive control. At the end of the incubation time, cells were fixed and stained for LAMP-1, filamentous actin and nuclei. Representative merged IF images depicting the effect of pHe 7.4, pHe 6.4, DMSO or deptropine and pizotifen on the distribution of lysosomes in A172 glioblastoma cells. On color versions of the Figure, red puncta are lysosomes, blue is nuclei and green is actin. As could be seen, lysosomes appear more peripherally distributed in A172 glioma cells than in cells treated with concentrations of 5 to 10 micromolar deptropine or pizotifen.
# Cells were treated as described above with FIG. 2 but included a concentration of 0.1 micromolar and 1 micromolar deptropine and pizotifen.
# Turning to FIG. 7, an additional aspect of this technology is how quickly deptropine and pizotifen act to move lysosomes towards the nucleus. […] A172 glioblastoma cells were treated with the 5 or 10 μM deptropine or pizofifen for 2 h and then with low pHe media containing the drugs for an additional 2 hours. At the end of incubation time, cells were fixed and stained for LAMP-1, filamentous actin, and nuclei. Representative merged IF images depicting the effect of DMSO, 5 and 10 μM deptropine or pizotifen upon 4 hours on the distribution of lysosomes, colored red in color images, in A172 glioblastoma cells. Also shown in color images are actin, colored green, and nuclei, colored blue.
# Erk signaling pathway = assay: Lysosome inward movement in the presence of the MAPK inhibitor U0126, and Erk western blot; conditions: deptropine and pizotifen 5 μM, 4 hours, A172 cells
# Procedure: Turning to FIG. 8, deptropine and pizotifen are shown to act through the Erk signaling pathway. In this experiment, A172 cells were treated with deptropine and pizotifen at 5 μM concentrations for 4 hours in the presence of the MAPK inhibitor U0126. I.F. microscopy was then performed. This helped allow the determination of the mechanism of action of deptropine and pizotifen.
Compound,hit in screen for lysosome migration inhibitors (mean ring spot count) [1],other results
CCN(c1nc(N)c(C(=O)NC(=N)N)nc1Cl)C(C)C [EIPA],,"lysosome position, positive control ([1]; EIPA 25 uM): lysosomes near the nucleus; acidic media induced lysosome redistribution, positive control (A172 glioblastoma cells): prevented lysosome redistribution and induced clustering of lysosomes around the nucleus"
N#CC(=C(/N)Sc1ccccc1N)/C(C#N)=C(\N)Sc1ccccc1N [U0126],,effect of U0126 on inward movement of lysosomes induced by deptropine and pizotifen (Erk signaling pathway): prevents the action of deptropine and pizotifen
CCCSc1ccc2nc(NC(=O)OC)[nH]c2c1 [albendazole],hits,
COc1cc2c(c(OC)c1OC)-c1ccc(OC)c(=O)cc1[C@@H](NC(C)=O)CC2 [colchicine],hits,
"CC(C)[C@@]1(NC(=O)[C@@H]2C[C@@H]3c4cccc5[nH]cc(c45)C[C@H]3N(C)C2)O[C@@]2(O)[C@@H]3CCCN3C(=O)[C@H](Cc3ccccc3)N2C1=O [dihydroergocristine mesylate, (5′α,10α)-9,10-Dihydro-12′-hydroxy-2′-(1-methylethyl)-5′-(phenylmethyl)-ergotaman-3′, 6′, 18-trione mesylate]",hits,
COC(=O)Nc1nc2ccc(Sc3ccccc3)cc2[nH]1 [fenbendazole],hits,
COc1ccc2c(c1)[nH]c1c(C)nccc12 [harmine],hit,
COC(=O)Nc1nc2ccc(C(=O)c3ccccc3)cc2[nH]1 [mebendazole],hits,
"OC(c1cc(C(F)(F)F)nc2c(C(F)(F)F)cccc12)C1CCCCN1 (stereo not drawn) [mefloquine, [(R*,S*)-2,8-bis(trifluoromethyl)quinolin-4-yl]-(2-piperidyl)methanol]",hit,
O=C(Nc1ccc([N+](=O)[O-])cc1Cl)c1cc(Cl)ccc1O [niclosamide],hits,
CC(=O)O[C@H]1C(=O)[C@@]2(C)[C@H]([C@H](OC(=O)c3ccccc3)[C@]3(O)C[C@H](OC(=O)[C@H](O)[C@@H](NC(=O)c4ccccc4)c4ccccc4)C(C)=C1C3(C)C)[C@]1(OC(C)=O)CO[C@@H]1C[C@@H]2O [paclitaxel],hits,
COc1cc([C@@H]2c3cc4c(cc3[C@H](O)[C@H]3COC(=O)[C@H]23)OCO4)cc(OC)c1OC [podophyllotoxin],hits,
O=C(c1ccc(OCCN2CCCCC2)cc1)c1c(-c2ccc(O)cc2)sc2cc(O)ccc12 [raloxifene],hits,
CC[C@]1(O)C[C@H]2CN(CCc3c([nH]c4ccccc34)[C@@](C(=O)OC)(c3cc4c(cc3OC)N(C=O)[C@H]3[C@@](O)(C(=O)OC)[C@H](OC(C)=O)[C@]5(CC)C=CCN6CC[C@]43[C@@H]65)C2)C1 [vincristine],hits,
CC[C@]1(O)C[C@@H]2CN(CCc3c([nH]c4ccccc34)[C@@](C(=O)OC)(c3cc4c(cc3OC)N(C)[C@H]3[C@@](O)(C(N)=O)[C@H](O)[C@]5(CC)C=CCN6CC[C@]43[C@@H]65)C2)C1 [vindesine],hits,
CCC1=C[C@@H]2CN(C1)Cc1c([nH]c3ccccc13)[C@@](C(=O)OC)(c1cc3c(cc1OC)N(C)[C@H]1[C@@](O)(C(=O)OC)[C@H](OC(C)=O)[C@]4(CC)C=CCN5CC[C@]31[C@@H]54)C2 [vinorelbine],hits,
dihydroergotoxine mesylate,hits,
